According to patent US4269834A, “Copper complexes of isoquinazolines” (priority 1977, dated 1981):
≈ marks a conversion by molar mass, not a printed value. Read-outs that look alike come from different tables or passages of the source.

Legend:
Type in all cases: cell-based
Spiroplasma citri = assay: Activity against Spiroplasma citri (MIC); conditions: for MIC S.Citri (with Cu): Table IVb, with Cu (50 μg/ml Cu^2+); for MIC / MIC with Cu: Table III; for MIC: without added Cu; for MIC with Cu: media containing 50 μg/ml Cu^2+
Source text: (§1) The following tables show some activities--expressed as minimum inhibiting concentration (MIC)--of the prepared compounds against various micro-organisms. The compounds are identified by reference to the Example in which they are described. When more than one compound is mentioned in an Example, they are distinguished by a number between parentheses, corresponding to their order of occurrence, for instance: VI (2) refers to the second compound prepared according to Example VI. The term "with Cu" refers to tests conducted in media containing 50 μg/ml Cu^2+.
(§2) The activities of the following compounds, not mentioned in the Examples, were also measured.

Mycoplasma gallisepticum = assay: Activity against Mycoplasma gallisepticum (minimum inhibiting concentration); conditions: Table I; for MIC with Cu: media containing 50 μg/ml Cu^2+; for MIC: without added Cu
Source text: as §1, §2

M. gallisepticum K514 = assay: Development of resistance of M. gallisepticum K514 in the presence of copper ions (repeated MIC determinations); conditions: 100 μg/ml Cu^2+; procedure repeated 12 times
Procedure: It was investigated whether M. gallisepticum K514 develops a resistance against the compounds of Examples IX (1), IX (2), VIIIe and XIIb in the presence of copper ions. The MIC's in the presence of 100 μg/ml Cu^2+ were determined in the usual way. The test tubes containing the highest concentration of each compound in which a considerable growth of micro-organism still occurred, were used for inoculation in a next determination. […] Consequently, no resistance is developed.

M. meleagridis = assay: Activity against other Mycoplasma species: M. meleagridis (MIC); conditions: Table II, with Cu (50 μg/ml Cu^2+)
Source text: as §1

M. synoviae = assay: Activity against other Mycoplasma species: M. synoviae (MIC); conditions: Table II, with Cu (50 μg/ml Cu^2+)
Source text: as §1

M. hyorhinis = assay: Activity against other Mycoplasma species: M. hyorhinis (MIC); conditions: Table II, copper complexes, head 'with Cu' possibly not covering these columns
Source text: as §1

M. suipneumoniae = assay: Activity against other Mycoplasma species: M. suipneumoniae (MIC); conditions: Table II, copper complexes, head 'with Cu' possibly not covering these columns
Source text: as §1

[1] = system: M. Hyorhinis (tylosin resistent); assay: Activity against other Mycoplasma species: M. Hyorhinis (tylosin resistent) (MIC); conditions: Table II, copper complexes, head 'with Cu' possibly not covering these columns
Source text: as §1

[2] = Mycoplasmoides gallisepticum, read-out: MIC

Row | Structure (SMILES) | MIC with Cu (Mycoplasma gallisepticum) | MIC (Mycoplasma gallisepticum; [2]) | MIC with Cu (Spiroplasma citri) | MIC (Mycoplasma gallisepticum) | further results
1 | Cc1ccc2ccc3ccc(C)nc3c2n1 [A] |  |  |  |  | MIC S.Citri (with Cu) (Spiroplasma citri): 0.03 µg/mL (≈ 0.144 µM)
2 | CCCCCCCCCCCc1c(-c2ccccn2)ncc2ccccc12 [D] |  |  |  |  | MIC S.Citri (with Cu) (Spiroplasma citri): 0.8 µg/mL (≈ 2.22 µM)
3 | COc1ccc2ccc3ccc(OC)nc3c2n1 [H] |  |  |  |  | MIC S.Citri (with Cu) (Spiroplasma citri): 1.5 µg/mL (≈ 6.24 µM)
4 | Cc1cccc(-c2cc3ccccc3c(N)n2)n1.Cc1cccc(-c2cc3ccccc3c(N)n2)n1.O=[N+]([O-])[O-].[Cu+] [IIf, Bis[1-amino-3-(6-methyl-2-pyridyl)isoquinoline]cuprous nitrate] | 0.03 µg/mL |  |  |  | MIC (Spiroplasma citri): 25 µg/mL
5 | Cc1cccc(-c2cc3ccccc3c(N)n2)n1.Cl [IX (1), 1-amino-3-(6-methyl-2-pyridyl)-isoquinoline hydrochloride] | 0.03 µg/mL | 100 µg/mL | 0.4 µg/mL |  | Resistance development: change of MIC (M. gallisepticum K514): without a significant increase of the MIC's; MIC with Cu (M. meleagridis): 0.025 µg/mL; MIC with Cu (M. synoviae): 0.025 µg/mL
6 | CCc1cccc(-c2cc3ccccc3c(N)n2)n1.Cl [IX (2), 1-amino-3-(6-ethyl-2-pyridyl) isoquinoline hydrochloride] | 0.02 µg/mL |  | 0.2 µg/mL |  | Resistance development: change of MIC (M. gallisepticum K514): without a significant increase of the MIC's; MIC with Cu (M. meleagridis): 0.013 µg/mL; MIC with Cu (M. synoviae): 0.05 µg/mL
7 | Cc1ccc2ccc3ccc(C)nc3c2n1.Cc1ccc2ccc3ccc(C)nc3c2n1.O.O=[N+]([O-])[O-].O=[N+]([O-])[O-].[Cu+2] [VI (1), bis(2,9-dimethyl-1,10phenanthroline)cupric nitrate monohydrate] |  |  |  | 0.4 µg/mL | MIC (Spiroplasma citri): 50 µg/mL; MIC (M. hyorhinis): 3 µg/mL; MIC (M. suipneumoniae): 3 µg/mL; MIC [1]: 1 µg/mL
8 | Cc1cccc2cc(-c3ccccn3)nc(N)c12 [VIIIe] | 0.06 µg/mL | 100 µg/mL (≈ 425 µM) | 0.1 µg/mL |  | Resistance development: change of MIC (M. gallisepticum K514): without a significant increase of the MIC's; MIC with Cu (M. meleagridis): 0.05 µg/mL; MIC with Cu (M. synoviae): 0.1 µg/mL
9 | CCc1cccc2cc(-c3ccccn3)nc(N)c12 [VIIIf] | 0.05 µg/mL | > 100 µg/mL | 0.4 µg/mL |  | 
10 | CCCCCCCCCCc1ccc2c(N)nc(-c3ccccn3)cc2c1 [VIIIg] | 0.06 µg/mL | 100 µg/mL (≈ 277 µM) | 0.8 µg/mL |  | 
11 | Nc1nc(-c2ccccn2)cc2c(Cl)cccc12 [VIIIh] | 0.05 µg/mL | > 100 µg/mL | 0.4 µg/mL |  | 
12 | CCc1nc(-c2ccccn2)cc2ccccc12 [XIIId, 1-ethyl-3-(2-pyridyl)isoquinoline] | 0.06 µg/mL |  | 0.2 µg/mL |  | 
13 | Cc1cccc(-c2cc3ccccc3c(C)n2)n1 [XIIb, 1-methyl-3(6-methyl-2-pyridyl)isoquinoline] | 0.03 µg/mL |  | 0.05 µg/mL |  | Resistance development: change of MIC (M. gallisepticum K514): without a significant increase of the MIC's; MIC with Cu (M. meleagridis): 0.05 µg/mL; MIC with Cu (M. synoviae): 0.1 µg/mL
14 | Nc1nc(-c2ccccn2)cc2ccccc12 [XIIc (1), 1-amino-3-(2-pyridyl)isoquinoline] | 0.4 µg/mL | > 100 µg/mL | 0.2 µg/mL |  | 
15 | Cc1nc(-c2ccccn2)cc2ccccc12 [XIIc (3), 1-methyl-3-(2-pyridyl)isoquinoline] | 0.06 µg/mL | 6 µg/mL (≈ 27.2 µM) | 0.2 µg/mL |  | 
16 | Cn1ccnc1-c1nc(N)c2ccccc2n1.Cn1ccnc1-c1nc(N)c2ccccc2n1.O=[N+]([O-])[O-].O=[N+]([O-])[O-].[Cu+2] [XVIb (3), Bis[4-amino-2-(1-methyl-1H-imidazole-2-yl)quinazoline]cupric nitrate] | 0.2 µg/mL |  |  | 12.5 µg/mL | 
17 | Cn1ccnc1-c1cc2ccccc2c(N)n1 [XVa, 1-amino-3-(1-methyl-1H-imidazole-2-yl)isoquinoline] | 1.5 µg/mL | > 100 µg/mL |  |  | 
18 | Cn1ccnc1-c1cc2ccccc2c(N)n1.Cn1ccnc1-c1cc2ccccc2c(N)n1.O=[N+]([O-])[O-].[Cu+] [XVb (1), Bis[1-amino-3-(1-methyl-1H-imidazole-2-yl)isoquinoline]cuprous nitrate] | 0.8 µg/mL |  |  | 12.5 µg/mL | 
19 | Cn1ccnc1-c1cc2ccccc2c(N)n1.O=[N+]([O-])[O-].O=[N+]([O-])[O-].[Cu+2] [XVb (2), mono[1-amino-3-(1-methyl-1H-imidazole-2-yl)isoquinoline]cupric nitrate] | 1.5 µg/mL |  |  | 12.5 µg/mL | 
20 | Cn1ccnc1-c1cc2ccccc2c(N)n1.Cn1ccnc1-c1cc2ccccc2c(N)n1.O=[N+]([O-])[O-].O=[N+]([O-])[O-].[Cu+2] [XVb (3), Bis[1-amino-3-(1-methyl-1H-imidazole-2-yl)isoquinoline]cupric nitrate] | 1.5 µg/mL |  |  | 12.5 µg/mL | 
21 | Cl.Cl.Nc1nc(-c2ncc[nH]2)nc2ccccc12 [XXa, 4-amino-2(1H-imidazole-2-yl)quinazoline dihydrochloride] | 3 µg/mL | > 100 µg/mL |  |  | 
22 | Nc1nc(-c2ncc[nH]2)nc2ccccc12.O=[N+]([O-])[O-].O=[N+]([O-])[O-].[Cu+2] [XXb (2), Mono[4-amino-2-(1H-imidazole-2-yl)quinazoline]cupric nitrate] | 1.5 µg/mL |  |  | 25 µg/mL | 
23 | Nc1nc(-c2ncc[nH]2)nc2ccccc12.Nc1nc(-c2ncc[nH]2)nc2ccccc12.O=[N+]([O-])[O-].O=[N+]([O-])[O-].[Cu+2] [XXb (3), Bis[4-amino-2-(1H-imidazole-2-yl)quinazoline]cupric nitrate] | 6 µg/mL |  |  | 50 µg/mL | 
